Results on four molecules are retold here after publication PMC10061639 (ACS Omega, 2023).

The structures appear in SMILES notation. Values after ≈ are worked out from the molar mass of the structure shown.

The nature of series [1]: Hansen solubility parameters estimated with HSPiP program. The following applies: HSP parameters of ENE5 based on composition.
The conditions of series [2]: cited from earlier work.
Series [3] in a line: Experimental saturated solubility of ENO in excipients. To be noted: thermodynamic from solid. Type of series: physicochemical.
For series [4] the following is noted: cited from earlier work. The source holds these as a separate data set.

Turning to `CCCCCCCC/C=C\CCCCCCCC(=O)OCCOCC(OCCO)C1OCC(OCCO)C1OCCO` (stereo not shown) [Tween 80], in series [1], the “δd, share of the component in ENE5 based on composition” value is on record as 2.52; the “δh, share of the component in ENE5 based on composition” value is 1.425; the “δp, share of the component in ENE5 based on composition” value is 0.975.

Regarding `CN1CCCC1=O` [NMP, N-methyl-2-pyrrolidone], in series [1], the “δd, share of the component in ENE5 based on composition” value is 8.1; the “δh, share of the component in ENE5 based on composition” value is listed as 3.33; the “δp, share of the component in ENE5 based on composition” value is listed as 4.46.

For the molecule `CCOCCOCCO` [Transcutol-HP], in series [2], the HLB was 14.5.

`CCn1cc(C(=O)O)c(=O)c2cc(F)c(N3CCNCC3)nc21` [ENO, Enoxacin]: the solubility at 72 h was 2800 µg/mL (≈ 8.74 mM) in series [3] (C90, 40 °C); 5400 µg/mL (≈ 16.9 mM) in series [3] (Miglyol 812N, 40 °C, oil or lipid); 6700 µg/mL (≈ 20.9 mM) in series [3] (NMP (N-methyl-2-pyrrolidone), 40 °C); 1500 µg/mL (≈ 4.68 mM) in series [3] (Tween 80, 40 °C). In series [4] (an experimental value), the aqueous solubility is 290 µg/mL (≈ 0.905 mM). For the same molecule, the pKa in series [4] is recorded as 5.5.

As a reminder, the solubility is how much of the substance goes into solution per volume. A low value points to little dissolved substance. Broadly, the aqueous solubility is the dissolved amount per volume that the medium holds. The pKa is the pH at which an ionisable group is half protonated.
